Laboratory results as given in the NIST ThermoML archive (doi:10.1021/acs.jced.6b00790).

Test: mean ionic activity coefficient (dimensionless); mn = molality of the nth substance listed, in mol/kg
Details: 298.15 K, 100 kPa, Liquid, potentiometry

O=[N+]([O-])[O-].[Na+] [sodium nitrate] + O
Details	mean ionic activity coefficient
m1 = 0.01	0.893
m1 = 0.05	0.811
m1 = 0.1	0.766
m1 = 0.2001	0.697
m1 = 0.2999	0.663
m1 = 0.4	0.638
m1 = 0.5001	0.616
m1 = 0.5999	0.576
m1 = 0.7001	0.565
m1 = 0.7998	0.545
m1 = 0.9	0.518
m1 = 0.9999	0.502
